Results taken from PubChem BioAssay AID1259407 (Chemical Carcinogenesis Research Information System (CCRIS), 2018).
Active and inactive are the calls of the source. No rule for the calls is given here.

Tested on: CCRIS mutagenicity, Ames/micronucleus/aberration tests
Experiment: CCRIS mutagenicity studies
[1] = Test System: AMES SALMONELLA TYPHIMURIUM, Strain/Indicator: TA100, Metabolic Activation: NONE, Method: STANDARD PLATE
[2] = Test System: AMES SALMONELLA TYPHIMURIUM, Strain/Indicator: TA98, Metabolic Activation: NONE, Method: STANDARD PLATE

C=CC(C)(C)c1cc2cc3c(cc2oc1=O)OC(C(C)(C)O)C3 (configuration not stated)
mutagenic call (Test System: AMES SALMONELLA TYPHIMURIUM, Strain/Indicator: TA92, Metabolic Activation: NONE, Method: SPOT TEST): inactive; negative | mutagenic call (Test System: AMES SALMONELLA TYPHIMURIUM, Strain/Indicator: TA92, Metabolic Activation: RAT, LIVER, S-9, AROCLOR 1254, Method: SPOT TEST): inactive; negative | mutagenic call (Test System: AMES SALMONELLA TYPHIMURIUM, Strain/Indicator: TA94, Metabolic Activation: NONE, Method: SPOT TEST): inactive; negative | mutagenic call (Test System: AMES SALMONELLA TYPHIMURIUM, Strain/Indicator: TA94, Metabolic Activation: RAT, LIVER, S-9, AROCLOR 1254, Method: SPOT TEST): inactive; negative | mutagenic call (Test System: AMES SALMONELLA TYPHIMURIUM, Strain/Indicator: TA97, Metabolic Activation: NONE, Method: SPOT TEST): active; positive | mutagenic call (Test System: AMES SALMONELLA TYPHIMURIUM, Strain/Indicator: TA97, Metabolic Activation: RAT, LIVER, S-9, AROCLOR 1254, Method: SPOT TEST): inactive; negative | mutagenic call (Test System: AMES SALMONELLA TYPHIMURIUM, Strain/Indicator: TA98, Metabolic Activation: NONE, Method: SPOT TEST): active; positive | mutagenic call (Test System: AMES SALMONELLA TYPHIMURIUM, Strain/Indicator: TA98, Metabolic Activation: RAT, LIVER, S-9, AROCLOR 1254, Method: SPOT TEST): inactive; negative | mutagenic call (Test System: AMES SALMONELLA TYPHIMURIUM, Strain/Indicator: TA100, Metabolic Activation: NONE, Method: SPOT TEST): active; positive | mutagenic call (Test System: AMES SALMONELLA TYPHIMURIUM, Strain/Indicator: TA100, Metabolic Activation: RAT, LIVER, S-9, AROCLOR 1254, Method: SPOT TEST): inactive; negative | mutagenic call (Test System: AMES SALMONELLA TYPHIMURIUM, Strain/Indicator: TA102, Metabolic Activation: NONE, Method: SPOT TEST): inactive; negative | mutagenic call (Test System: AMES SALMONELLA TYPHIMURIUM, Strain/Indicator: TA102, Metabolic Activation: RAT, LIVER, S-9, AROCLOR 1254, Method: SPOT TEST): inactive; negative

CCOc1cccc(N)c1
mutagenic call (Test System: AMES SALMONELLA TYPHIMURIUM, Strain/Indicator: TA97, Metabolic Activation: HAMSTER, LIVER, S-9, AROCLOR 1254 (30%), Method: PREINCUBATION): inactive; negative | mutagenic call (Test System: AMES SALMONELLA TYPHIMURIUM, Strain/Indicator: TA98, Metabolic Activation: HAMSTER, LIVER, S-9, AROCLOR 1254 (5 OR 10%), Method: PREINCUBATION): inactive; negative | mutagenic call (Test System: AMES SALMONELLA TYPHIMURIUM, Strain/Indicator: TA98, Metabolic Activation: HAMSTER, LIVER, S-9, AROCLOR 1254 (30%), Method: PREINCUBATION): inactive; negative | mutagenic call (Test System: AMES SALMONELLA TYPHIMURIUM, Strain/Indicator: TA98, Metabolic Activation: NONE, Method: PREINCUBATION): inactive; negative | mutagenic call (Test System: AMES SALMONELLA TYPHIMURIUM, Strain/Indicator: TA98, Metabolic Activation: RAT, LIVER, S-9, AROCLOR 1254 (5 OR 10%), Method: PREINCUBATION): inactive; negative | mutagenic call (Test System: AMES SALMONELLA TYPHIMURIUM, Strain/Indicator: TA98, Metabolic Activation: RAT, LIVER, S-9, AROCLOR 1254 (30%), Method: PREINCUBATION): inactive; negative | mutagenic call (Test System: AMES SALMONELLA TYPHIMURIUM, Strain/Indicator: TA100, Metabolic Activation: HAMSTER, LIVER, S-9, AROCLOR 1254 (5, 10 OR 30%), Method: PREINCUBATION): inactive; negative | mutagenic call (Test System: AMES SALMONELLA TYPHIMURIUM, Strain/Indicator: TA100, Metabolic Activation: NONE, Method: PREINCUBATION): inactive; negative | mutagenic call (Test System: AMES SALMONELLA TYPHIMURIUM, Strain/Indicator: TA100, Metabolic Activation: RAT, LIVER, S-9, AROCLOR 1254 (5, 10 OR 30%), Method: PREINCUBATION): inactive; negative | mutagenic call (Test System: AMES SALMONELLA TYPHIMURIUM, Strain/Indicator: TA1535, Metabolic Activation: HAMSTER, LIVER, S-9, AROCLOR 1254 (5, 10 OR 30%), Method: PREINCUBATION): inactive; negative | mutagenic call (Test System: AMES SALMONELLA TYPHIMURIUM, Strain/Indicator: TA1535, Metabolic Activation: RAT, LIVER, S-9, AROCLOR 1254 (5, 10 OR 30%), Method: PREINCUBATION): inactive; negative

c1ccc(COC[C@H]2CO2)cc1
mutagenic call [1]: active; positive

CCN(CC)c1ccc2nc3ccc(=[N+](CC)CC)cc-3oc2c1
mutagenic call (Test System: AMES SALMONELLA TYPHIMURIUM, Strain/Indicator: TA98, Metabolic Activation: HAMSTER, LIVER, S-9, AROCLOR 1254 (10%), Method: STANDARD PLATE): inactive; negative | mutagenic call [2]: active; positive | mutagenic call (Test System: AMES SALMONELLA TYPHIMURIUM, Strain/Indicator: TA98, Metabolic Activation: RAT, LIVER, S-9, AROCLOR 1254 (10%), Method: STANDARD PLATE): inactive; negative | mutagenic call (Test System: AMES SALMONELLA TYPHIMURIUM, Strain/Indicator: TA100, Metabolic Activation: HAMSTER, LIVER, S-9, AROCLOR 1254 (10%), Method: STANDARD PLATE): inactive; negative | mutagenic call [1]: inactive; negative | mutagenic call (Test System: AMES SALMONELLA TYPHIMURIUM, Strain/Indicator: TA100, Metabolic Activation: RAT, LIVER, S-9, AROCLOR 1254 (10%), Method: STANDARD PLATE): inactive; negative | mutagenic call (Test System: Ames Salmonella typhimurium, Strain/Indicator: TA98, Metabolic Activation: None, Method: Preincubation): inactive; negative | mutagenic call (Test System: Ames Salmonella typhimurium, Strain/Indicator: TA98, Metabolic Activation: Rat, Liver, S-9, Aroclor 1254, Method: Preincubation): inactive; negative | mutagenic call (Test System: Ames Salmonella typhimurium, Strain/Indicator: TA100, Metabolic Activation: None, Method: Preincubation): inactive; negative | mutagenic call (Test System: Ames Salmonella typhimurium, Strain/Indicator: TA100, Metabolic Activation: Rat, Liver, S-9, Aroclor 1254, Method: Preincubation): inactive; negative | mutagenic call (Test System: Ames Salmonella typhimurium, Strain/Indicator: TA102, Metabolic Activation: None, Method: Preincubation): inactive; negative | mutagenic call (Test System: Ames Salmonella typhimurium, Strain/Indicator: TA102, Metabolic Activation: Rat, Liver, S-9, Aroclor 1254, Method: Preincubation): inactive; negative | mutagenic call (Test System: Ames Salmonella typhimurium, Strain/Indicator: TA1535, Metabolic Activation: None, Method: Preincubation): inactive; negative | mutagenic call (Test System: Ames Salmonella typhimurium, Strain/Indicator: TA1535, Metabolic Activation: Rat, Liver, S-9, Aroclor 1254, Method: Preincubation): inactive; negative | mutagenic call (Test System: MOUSE LYMPHOMA, Strain/Indicator: L5178Y (TK+/TK-), Metabolic Activation: NONE, Method: SUSPENSION/PLATE): active; positive. reevaluation of results: positive | mutagenic call (Test System: MOUSE LYMPHOMA, Strain/Indicator: L5178Y (TK+/TK-), Metabolic Activation: RAT, LIVER, S-9, AROCLOR 1254, Method: SUSPENSION/PLATE): active; positive. reevaluation of results: positive

CC(C)(C)NCC(O)COc1ccccc1C1=CCCC1 (configuration not stated)
mutagenic call [2]: inactive; negative | mutagenic call (Test System: AMES SALMONELLA TYPHIMURIUM, Strain/Indicator: TA98, Metabolic Activation: RAT, LIVER, S-9, AROCLOR 1254, Method: STANDARD PLATE): inactive; negative
